Measured values: patent publication US8461389B2, “Psycho-pharmaceuticals” (University College Dublin, National University of Ireland, …, priority 2008, dated 2013)

Test system: C57B16 mice
Experiment: Forced swim test
Format: in vivo
Details: 3 mg/kg and 5 mg/kg; n=8; FIG. 10B
Experimental: • 1. Fill a 12 cm diameter glass cylinder to 10 cm with 22° C. water. • 2. Place two animals simultaneously in individual side-by-side cylinders separated by an opaque screen. • 3. Place mice in the cylinders for 6 minutes. • 4. Observe the behaviour of the mice for the last 4-minutes of the 6-minute experimental session. • 5. Sessions are videotaped and scored blind, Immobility is scored by summing the time spent immobile; movements necessary to maintain the animals head above water were not scored with data from treated groups compared with data from the control group using nonpaired Student's t tests (two tailed). • 6. Animals are dried with paper towels and heat lamps. FST in Rats: Habituation Session (Day 1) • 1. On Day 1, […] prior to testing, place the animals in the experimental room 60 min before the beginning of the habituation session. Randomly assign animals to a drug treatment, but give all animals within a cage the same treatment. Make food and water available throughout the experiment. • 2. Weigh two animals individually, then place one rat in each of the two cylinders (20 cm in diameter×40 cm high) containing water (25° C.) for 15 min (habituation session). No scoring of immobility is performed during the habituation session. […]
Values are expressed as mean±S.E.M (n=8). Statistical difference was determined using a Mann Whitney non-parametric U-test. […]

CCCCSc1ccc(C(SCCN(C)C)c2ccccc2)cc1 (single isomer, unassigned) [dextrorotary (+) enantiomer]
antidepressant activity of separated enantiomer (time spent immobile, forced swim test): retains the antidepressant biologic activity
